# Test results published in ChEMBL document CHEMBL4190379 (Bioorg Med Chem Lett, 2018).
# Tested on: not listed separately
# Test: Intrinsic unbound clearance in mouse liver microsomes
# Format: ADME, microsome
# Conditions: not given
row,Structure (SMILES),CL free [mL/min/kg]
1,Cn1cc2c3c(c[nH]c(=O)c31)-c1cc(CS(C)(=O)=O)ccc1N(c1ccccn1)C2,140
2,Cn1cc2c3c(c[nH]c(=O)c31)CN(CC1CC1)c1ccc(CS(C)(=O)=O)cc1-2,< 130
3,Cn1cc2c3c(c[nH]c3c1=O)CN(CC1CC1)c1ccc(CS(C)(=O)=O)cc1-2,300
4,Cn1cc2c3c(c[nH]c3c1=O)CN(C1CCC(F)(F)CC1)c1ccc(CS(C)(=O)=O)cc1-2,267
5,Cn1cc2c3c(c[nH]c3c1=O)CN(c1ccc(F)cc1)c1ccc(CS(C)(=O)=O)cc1-2,1400

# Tested on: Mus musculus
# Test: Unbound clearance in mouse at 10 mg/kg, po
# Format: ADME, organism-based
# Conditions: in vivo
row,Structure (SMILES),CL free [mL/min/kg]
1,Cn1cc2c3c(c[nH]c(=O)c31)CN(CC1CC1)c1ccc(CS(C)(=O)=O)cc1-2,733
2,Cn1cc2c3c(c[nH]c3c1=O)CN(CC1CC1)c1ccc(CS(C)(=O)=O)cc1-2,450
3,Cn1cc2c3c(c[nH]c3c1=O)CN(C1CCC(F)(F)CC1)c1ccc(CS(C)(=O)=O)cc1-2,4830
4,Cn1cc2c3c(c[nH]c3c1=O)CN(c1ccc(F)cc1)c1ccc(CS(C)(=O)=O)cc1-2,5170

# Tested on: not listed separately
# Test: AUC in mouse at 10 mg/kg, po
# Format: ADME, organism-based
# Conditions: in vivo
row,Structure (SMILES),AUC [µM·h]
1,Cn1cc2c3c(c[nH]c(=O)c31)-c1cc(CS(C)(=O)=O)ccc1N(c1ccccn1)C2,1.2
2,Cn1cc2c3c(c[nH]c(=O)c31)CN(CC1CC1)c1ccc(CS(C)(=O)=O)cc1-2,0.64
3,Cn1cc2c3c(c[nH]c3c1=O)CN(CC1CC1)c1ccc(CS(C)(=O)=O)cc1-2,0.16
4,Cn1cc2c3c(c[nH]c3c1=O)CN(C1CCC(F)(F)CC1)c1ccc(CS(C)(=O)=O)cc1-2,0.13
5,Cn1cc2c3c(c[nH]c3c1=O)CN(c1ccc(F)cc1)c1ccc(CS(C)(=O)=O)cc1-2,0.67

# Tested on: not listed separately
# Test: Oral bioavailability in mouse at 10 mg/kg
# Format: ADME, organism-based
# Conditions: in vivo
row,Structure (SMILES),bioavailability [%]
1,Cn1cc2c3c(c[nH]c(=O)c31)CN(CC1CC1)c1ccc(CS(C)(=O)=O)cc1-2,23
2,Cn1cc2c3c(c[nH]c3c1=O)CN(CC1CC1)c1ccc(CS(C)(=O)=O)cc1-2,8.2
3,Cn1cc2c3c(c[nH]c3c1=O)CN(C1CCC(F)(F)CC1)c1ccc(CS(C)(=O)=O)cc1-2,48
4,Cn1cc2c3c(c[nH]c3c1=O)CN(c1ccc(F)cc1)c1ccc(CS(C)(=O)=O)cc1-2,23

# Molecular target: T1, Bromodomain-containing protein 4 (Homo sapiens, UniProt O60885)
# Test: Binding affinity to BRD4 in human H1299 cells stably expressing E2 and HPV16-LCR luciferase reporter incubated for 24 hrs by Bright-Glo luciferase reporter gene assay based BRD4 engagement assay
# Format: cell-based
# Conditions: not given
row,Structure (SMILES),IC50 [µM]
1,Cn1cc(-c2ccccc2NCC2CC2)c2cc[nH]c(=O)c21,5
2,Cn1cc2c3c(c[nH]c(=O)c31)-c1cc(CS(C)(=O)=O)ccc1N(c1ccc(F)cc1F)C2,0.0065
3,CCS(=O)(=O)Nc1ccc2c(c1)-c1c[nH]c(=O)c3c1c(cn3C)CN2c1ccc(F)cc1,0.0043
4,CCS(=O)(=O)Nc1ccc2c(c1)-c1c[nH]c(=O)c3c1c(cn3C)CN2c1ccccn1,0.018
5,CCS(=O)(=O)Nc1cnc2c(c1)-c1cn(C)c(=O)c3[nH]cc(c13)CN2c1ccc(F)cc1F,0.0041
6,CCS(=O)(=O)Nc1cnc2c(c1)-c1c[nH]c(=O)c3c1c(cn3C)CN2c1ccc(F)cc1F,0.032
7,CCS(=O)(=O)Nc1ccc(Oc2ccc(F)cc2F)c(-c2cn(C)c(=O)c3[nH]ccc23)c1 [MIVEBRESIB],0.02
8,Cn1cc2c3c(c[nH]c3c1=O)CN(c1ccc(F)cc1)c1ccc(CS(C)(=O)=O)cc1-2,0.0015
9,Cn1cc(-c2cc(S(C)(=O)=O)ccc2NCC2CC2)c2cc[nH]c(=O)c21,0.15
10,Cn1cc2c3c(c[nH]c3c1=O)CN(CC1CC1)c1ccccc1-2,0.023

# Further lines, results first:
row,IC50 [µM],Structure (SMILES)
1,0.0023,Cn1cc2c3c(c[nH]c(=O)c31)-c1cc(CS(C)(=O)=O)ccc1N(c1ccccn1)C2
2,0.021,Cn1cc2c3c(c[nH]c3c1=O)CN(C(=O)C1CC1)c1ccc(CS(C)(=O)=O)cc1-2
3,0.023,Cn1cc2c3c(c[nH]c(=O)c31)CN(CC1CC1)c1ccc(CS(C)(=O)=O)cc1-2
4,0.031,Cn1cc2c3c(c[nH]c(=O)c31)-c1cc(CS(C)(=O)=O)ccc1N(C(=O)C1CC1)C2
5,0.2,Cn1cc(-c2cc(CS(C)(=O)=O)ccc2NCC2CC2)c2cc[nH]c(=O)c21
6,0.0046,Cn1cc2c3c(c[nH]c3c1=O)CN(CC1CC1)c1ccc(CS(C)(=O)=O)cc1-2
7,0.19,Cn1cc2c3c(c[nH]c(=O)c31)CN(CC1CC1)c1ccc(S(C)(=O)=O)cc1-2
8,0.0037,Cn1cc2c3c(c[nH]c3c1=O)CN(C1CCC(F)(F)CC1)c1ccc(CS(C)(=O)=O)cc1-2
9,0.095,Cn1cc2c3c(c[nH]c(=O)c31)CN(CC1CC1)c1ccccc1-2
10,0.028,Cn1cc2c3c(c[nH]c3c1=O)CN(CC1CC1)c1ccc(S(C)(=O)=O)cc1-2
11,0.009,CCC(=O)N1Cc2c[nH]c3c(=O)n(C)cc(c23)-c2cc(CS(C)(=O)=O)ccc21
12,0.048,COC(=O)N1Cc2cn(C)c3c(=O)[nH]cc(c23)-c2cc(CS(C)(=O)=O)ccc21

# Tested on: MX1
# Test: Antiproliferative activity against human MX1 cells incubated for 72 hrs by cell-titer Glo assay
# Format: functional, cell-based
# Conditions: MX1, 72 h
row,Structure (SMILES),EC50 [µM]
1,Cn1cc2c3c(c[nH]c(=O)c31)-c1cc(CS(C)(=O)=O)ccc1N(c1ccccn1)C2,0.0055
2,Cn1cc2c3c(c[nH]c3c1=O)CN(C(=O)C1CC1)c1ccc(CS(C)(=O)=O)cc1-2,0.0078
3,Cn1cc2c3c(c[nH]c(=O)c31)CN(CC1CC1)c1ccc(CS(C)(=O)=O)cc1-2,0.019
4,Cn1cc(-c2ccccc2NCC2CC2)c2cc[nH]c(=O)c21,3.3
5,Cn1cc2c3c(c[nH]c(=O)c31)-c1cc(CS(C)(=O)=O)ccc1N(c1ccc(F)cc1F)C2,0.004
6,CCS(=O)(=O)Nc1ccc2c(c1)-c1c[nH]c(=O)c3c1c(cn3C)CN2c1ccc(F)cc1,0.0056
7,CCS(=O)(=O)Nc1ccc2c(c1)-c1c[nH]c(=O)c3c1c(cn3C)CN2c1ccccn1,0.0049
8,Cn1cc2c3c(c[nH]c(=O)c31)-c1cc(CS(C)(=O)=O)ccc1N(C(=O)C1CC1)C2,0.016
9,Cn1cc(-c2cc(CS(C)(=O)=O)ccc2NCC2CC2)c2cc[nH]c(=O)c21,0.14
10,CCS(=O)(=O)Nc1cnc2c(c1)-c1cn(C)c(=O)c3[nH]cc(c13)CN2c1ccc(F)cc1F,0.007
11,CCS(=O)(=O)Nc1cnc2c(c1)-c1c[nH]c(=O)c3c1c(cn3C)CN2c1ccc(F)cc1F,0.018
12,Cn1cc2c3c(c[nH]c3c1=O)CN(CC1CC1)c1ccc(CS(C)(=O)=O)cc1-2,0.002
13,Cn1cc2c3c(c[nH]c(=O)c31)CN(CC1CC1)c1ccc(S(C)(=O)=O)cc1-2,0.14
14,Cn1cc2c3c(c[nH]c3c1=O)CN(C1CCC(F)(F)CC1)c1ccc(CS(C)(=O)=O)cc1-2,0.0014
15,Cn1cc2c3c(c[nH]c(=O)c31)CN(CC1CC1)c1ccccc1-2,0.057
16,Cn1cc2c3c(c[nH]c3c1=O)CN(CC1CC1)c1ccc(S(C)(=O)=O)cc1-2,0.015
17,Cn1cc(-c2cc(S(C)(=O)=O)ccc2NCC2CC2)c2cc[nH]c2c1=O,0.017
18,Cn1cc(-c2ccccc2NCC2CC2)c2cc[nH]c2c1=O,1.4
19,CCC(=O)N1Cc2c[nH]c3c(=O)n(C)cc(c23)-c2cc(CS(C)(=O)=O)ccc21,0.0047
20,Cn1cc2c3c(c[nH]c3c1=O)CN(c1ccc(F)cc1)c1ccc(CS(C)(=O)=O)cc1-2,0.00072
21,Cn1cc(-c2cc(S(C)(=O)=O)ccc2NCC2CC2)c2cc[nH]c(=O)c21,0.14
22,Cn1cc(-c2cc(CS(C)(=O)=O)ccc2NCC2CC2)c2cc[nH]c2c1=O,0.043
23,Cn1cc2c3c(c[nH]c3c1=O)CN(CC1CC1)c1ccccc1-2,0.0073
24,COC(=O)N1Cc2cn(C)c3c(=O)[nH]cc(c23)-c2cc(CS(C)(=O)=O)ccc21,0.078

# Molecular target: T1, Bromodomain-containing protein 4
# Test: Binding affinity to His-tagged BRD4 bromodomain 1 to 2 (K57 to K550 amino acids) (unknown origin) using Alexa647-labeled BET-inhibitor as fluorescent probe by bromodomain TR-FRET binding assay
# Format: single protein
# Conditions: not given
row,Structure (SMILES),Ki [µM]
1,Cn1cc(-c2ccccc2NCC2CC2)c2cc[nH]c(=O)c21,1.5
2,Cn1cc2c3c(c[nH]c(=O)c31)-c1cc(CS(C)(=O)=O)ccc1N(c1ccc(F)cc1F)C2,0.0027
3,CCS(=O)(=O)Nc1ccc2c(c1)-c1c[nH]c(=O)c3c1c(cn3C)CN2c1ccc(F)cc1,0.0048
4,CCS(=O)(=O)Nc1ccc2c(c1)-c1c[nH]c(=O)c3c1c(cn3C)CN2c1ccccn1,0.0027
5,CCS(=O)(=O)Nc1cnc2c(c1)-c1cn(C)c(=O)c3[nH]cc(c13)CN2c1ccc(F)cc1F,0.0041
6,CCS(=O)(=O)Nc1cnc2c(c1)-c1c[nH]c(=O)c3c1c(cn3C)CN2c1ccc(F)cc1F,0.0044
7,Cn1cc2c3c(c[nH]c3c1=O)CN(c1ccc(F)cc1)c1ccc(CS(C)(=O)=O)cc1-2,0.00087
8,Cn1cc(-c2cc(S(C)(=O)=O)ccc2NCC2CC2)c2cc[nH]c(=O)c21,0.08
9,Cn1cc2c3c(c[nH]c3c1=O)CN(CC1CC1)c1ccccc1-2,0.016

# Results, then the compound that gave them:
row,Ki [µM],Structure (SMILES)
1,0.0029,Cn1cc2c3c(c[nH]c(=O)c31)-c1cc(CS(C)(=O)=O)ccc1N(c1ccccn1)C2
2,0.0071,Cn1cc2c3c(c[nH]c3c1=O)CN(C(=O)C1CC1)c1ccc(CS(C)(=O)=O)cc1-2
3,0.012,Cn1cc2c3c(c[nH]c(=O)c31)CN(CC1CC1)c1ccc(CS(C)(=O)=O)cc1-2
4,0.0077,Cn1cc2c3c(c[nH]c(=O)c31)-c1cc(CS(C)(=O)=O)ccc1N(C(=O)C1CC1)C2
5,0.22,Cn1cc(-c2cc(CS(C)(=O)=O)ccc2NCC2CC2)c2cc[nH]c(=O)c21
6,0.0084,Cn1cc2c3c(c[nH]c3c1=O)CN(CC1CC1)c1ccc(CS(C)(=O)=O)cc1-2
7,0.18,Cn1cc2c3c(c[nH]c(=O)c31)CN(CC1CC1)c1ccc(S(C)(=O)=O)cc1-2
8,0.0047,Cn1cc2c3c(c[nH]c3c1=O)CN(C1CCC(F)(F)CC1)c1ccc(CS(C)(=O)=O)cc1-2
9,0.043,Cn1cc2c3c(c[nH]c(=O)c31)CN(CC1CC1)c1ccccc1-2
10,0.026,Cn1cc2c3c(c[nH]c3c1=O)CN(CC1CC1)c1ccc(S(C)(=O)=O)cc1-2
11,0.0073,CCC(=O)N1Cc2c[nH]c3c(=O)n(C)cc(c23)-c2cc(CS(C)(=O)=O)ccc21
12,0.017,COC(=O)N1Cc2cn(C)c3c(=O)[nH]cc(c23)-c2cc(CS(C)(=O)=O)ccc21

# Tested on: not listed separately
# Test: Intrinsic unbound clearance in human liver microsomes
# Format: ADME, microsome
# Conditions: not given
row,Structure (SMILES),CL free [mL/min/kg]
1,Cn1cc2c3c(c[nH]c(=O)c31)-c1cc(CS(C)(=O)=O)ccc1N(c1ccccn1)C2,65
2,Cn1cc2c3c(c[nH]c(=O)c31)CN(CC1CC1)c1ccc(CS(C)(=O)=O)cc1-2,< 45
3,Cn1cc2c3c(c[nH]c3c1=O)CN(CC1CC1)c1ccc(CS(C)(=O)=O)cc1-2,183
4,Cn1cc2c3c(c[nH]c3c1=O)CN(C1CCC(F)(F)CC1)c1ccc(CS(C)(=O)=O)cc1-2,67
5,Cn1cc2c3c(c[nH]c3c1=O)CN(c1ccc(F)cc1)c1ccc(CS(C)(=O)=O)cc1-2,< 41.7

# Tested on: not listed separately
# Test: Permeability of the compound by PAMPA method
# Format: ADME
# Conditions: read-out: permeability
row,Structure (SMILES),Papp [×10⁻⁶ cm/s]
1,Cn1cc2c3c(c[nH]c(=O)c31)-c1cc(CS(C)(=O)=O)ccc1N(c1ccccn1)C2,5.9
2,Cn1cc2c3c(c[nH]c(=O)c31)CN(CC1CC1)c1ccc(CS(C)(=O)=O)cc1-2,2.5
3,Cn1cc2c3c(c[nH]c3c1=O)CN(CC1CC1)c1ccc(CS(C)(=O)=O)cc1-2,4.3
4,Cn1cc2c3c(c[nH]c3c1=O)CN(C1CCC(F)(F)CC1)c1ccc(CS(C)(=O)=O)cc1-2,7.3
5,Cn1cc2c3c(c[nH]c3c1=O)CN(c1ccc(F)cc1)c1ccc(CS(C)(=O)=O)cc1-2,6.6
